21 molecules from US20200317660A1, “Quinazolinone Compound and Application Thereof” (LUOXIN PHARMACEUTICAL (SHANGHAI) CO., LTD., priority 2017, published 2020) can be followed below.

For one assay, the target named is T1, PI3Kα (Homo sapiens, UniProt P42336).
T1 construct: purchased Millipore 14-602-K
The assay is described as follows: In vitro test of enzyme activity (ADP-Glo lipokinase), PI3K alpha. In kind it is biochemical. To be noted: 40 μM ATP, 50 μM PIP2:3PS, 120 min. Here is the method:
(§1) 1. In Vitro Test of Enzyme Activity
(§2) The lipokinase reaction was carried out under the conditions of a suitable substrate and ATP, followed by two steps to detect the kinase activity with the ADP-Glo™ kit. The first step was terminating the kinase reaction, wherein the remaining ATP was completely removed and only ADP was left; the second step was adding kinase detection reagents to convert ADP to ATP, accompanied by luciferin/luciferase reaction. Finally, the output value of fluorescence value was converted into kinase activity.
(§3) Experimental materials and equipments:
(§4) 2. Kit: ADP-Glo™ Lipokinase and PIP2:3PS Kit (Promega # V1792)
(§5) The kit contains: 1 mM PIP2:3PS, 10× lipid dilution buffer, 1 M magnesium chloride, 10 mM ATP, 10 mM ADP, ADP-Glo reagent, detection buffer and detection substrate.
(§6) 3. Reaction plate: OptiPlate-384, white and transparent (PerkinElmer #6007299).
(§7) 1. 10× reaction buffer: 500 mM HEPES, pH 7.5, 500 mM NaCl, 9 mM MgCl2; BSA: 10% stock solution, homemade.
(§8) 2. Final test system conditions: 1× reaction system: 50 mM HEPES, 50 mM NaCl, 3 mM MgCl2, 0.01% BSA (freshly prepared on the day of the experiment), 1% DMSO (v/v)+/−compound
(§9) 3. Reaction system: 3 μL mixture of the enzyme and the substrate (1:1)+2 μL ATP/MgCl2 mixture+5 μL ADP-Glo reagent+10 μL detection reagent.
(§10) The detailed experimental procedures are as follows:
(§11) 1. Compound dilution: 50 nL 100×compound/DMSO was transferred to the test well plate with Echo. • For PI3Kα, the compound was diluted three-fold from the highest concentration of 0.111 mM for a total of 10 concentrations. • For PI3Kβ/PI3Kδ/PI3Kγ, the compound was three-fold diluted from the highest concentration of 1.11 mM for a total of 10 concentrations.
(§12) (1) The compound to be tested was prepared and 50 nL of 100 plus compound solution or DMSO was added to the corresponding well plate.
(§13) (2) 3.33 plate reaction buffer was prepared.
(§14) (3) 3.33 solution PIP2:3PS was prepared, PIP2:3PS was thawed for at least 1 minute before use.
(§15) (4) 2.5 mM containing 5.25 mM MgCl2 was prepared.
(§16) (5) 3.33 PI3Kα/PI3Kβ/PI3Kδ/PI3Kγ solution was prepared.
(§17) (6) The lipokinase solution and the PIP2:3PS solution were mixed in a volume ratio of 1:1.
(§18) (7) 3.33: lipokinase buffer and PIP2:3PS solution were mixed in a volume ratio of 1:1.
(§19) (8) 3 μL of buffer solution and PIP2:3PS were added to the first and the second columns of the well plate.
(§20) (9) 3 μL of the mixed solution of the enzyme and PIP2:3PS was added to the wells except the first and the second columns, centrifuged for 10 seconds (1000 rpm) and incubated at 23° C. for 20 minutes.
(§21) (10) 2 μL […] was added and well was shaken.
(§22) (11) The well plate was covered and shaken for about 30 s, then the well plate was incubated at 23° C. for 2 hours.
(§23) (12) 5 μL of ADP-Glo reagent containing 10 mM MgCl2 was added.
(§24) (13) The well plate was centrifuged at 1000 rpm for 10 seconds, and the well plate was then covered, shaken for about 30 seconds, and incubated at 23° C. for 60 minutes.
(§25) (14) 10 μL kinase detection reagent was added.
(§26) (15) The well plate was centrifuged at 1000 rpm for 10 seconds, and then incubated at 23° C. for 60 minutes.
(§27) (16) The fluorescence value was measured on the Envision instrument.

A further assay concerns the target T2, PI3Kβ (Homo sapiens, UniProt P42338).
T2 construct: purchased Promega V1751
Kind of assay: In vitro test of enzyme activity (ADP-Glo lipokinase), PI3K beta. In kind it is biochemical. The settings on record: 40 μM ATP, 50 μM PIP2:3PS, 120 min. The protocol: as §1, §2, §3, §4, §5, §6, §7, §8, §9, §10, §11, §12, §13, §14, §15, §16, §17, §18, §19, §20, §21, §22, §23, §24, §25, §26, §27
Background: ADP-Glo first removes unused ATP, then detects ADP through luciferase.

Another assay addresses T3, PI3Kδ (Homo sapiens, UniProt O00329).
T3 construct: purchased Millipore 14-604-K
Kind of assay: In vitro test of enzyme activity (ADP-Glo lipokinase), PI3K delta. In kind it is biochemical. The settings on record: 40 μM ATP, 50 μM PIP2:3PS, 120 min. Here is the method: as §1, §2, §3, §4, §5, §6, §7, §8, §9, §10, §11, §12, §13, §14, §15, §16, §17, §18, §19, §20, §21, §22, §23, §24, §25, §26, §27

A further assay has as its target T4, PI3Kγ (Homo sapiens, UniProt P48736).
T4 construct: purchased Millipore 14-558-K
Kind of assay: In vitro test of enzyme activity (ADP-Glo lipokinase), PI3K gamma. The format is biochemical. The settings on record: 25 μM ATP, 50 μM PIP2:3PS, 120 min. Here is the method: as §1, §2, §3, §4, §5, §6, §7, §8, §9, §10, §11, §12, §13, §14, §15, §16, §17, §18, §19, §20, §21, §22, §23, §24, §25, §26, §27

Assay [1] relates to phosphorylation of PI3K downstream protein Akt in MCF7 cells. Kind of assay: In vitro test of cells activity: ELISA of Akt phosphorylation in MCF7 cells. In kind it is cell-based. The settings on record: 2 h compound, insulin 10 μg/mL stimulation, pAkt ELISA, read-out: MCF7 Cell IC50. Here is the method:
2. In vitro test of cells activity
By the method of ELISA, the inhibition level of the test compound on the phosphorylation of PI3K downstream protein Akt in the signaling pathway was determined in MCF7 cells line to reflect the cells activity of the compound.
Cell culture medium: complete cell culture medium (RPMI 1640+10% serum+1% L-glutamine+1% double antibody)
Serum-free medium (without serum, RPMI 1640+1% L-glutamine+1% double antibody)
The detailed procedures areas follows:
(1) MCF7 cells (ATCC® HTB-22™) were inoculated into a 96-well plate at 100 μL of cell complete medium per well (2.5*10^4 cells per well), and the cells were incubated at 37° C. and 5% CO2 for 24 hours.
(2) The complete cell culture medium was replaced with 100 μL of serum-free medium, and incubated for starvation overnight.
(3) The compound was prepared (The initial concentration of the compound is 1 mM, which was subjected to a three-fold dilution in 10 concentrations, and the compound of each concentration was then diluted 100-fold with serum-free medium). 25 μL of the diluted compound was added to the cells orifice plate.
(4) The cells were incubated at 37° C. and 5% CO2 for 2 hours.
(5) The cells in the well plate were stimulated with 10 μg/mL insulin (Sigma # I9278-5 mL), incubated for 30 minutes, and then centrifuged at 1000 rpm for 5 minutes at room temperature.
(6) 250 μL of 1× balanced salt solution (Invitrogen, #14065-056, 4° C., containing 1 mM/L Na3VO4) was added to each well to wash the cells once.
(7) 100 μL of lysis buffer (trimethylolaminomethane hydrochloride, Invitrogen, #15567-1000 ml) was added to each well, shaken at 4° C. for 60 minutes, and then centrifuged at 4000 rpm for 4 minutes.
(8) The following procedures were carried out according to the instructions of ELISA kit (TGR BioSciences # EKT002).
On the technique in general: In an ELISA, binding on a coated surface is turned into a signal by an enzyme label.

As usually defined, the IC50 is the concentration that gives 50% inhibition.

T2 sequence (P42338 whole entry): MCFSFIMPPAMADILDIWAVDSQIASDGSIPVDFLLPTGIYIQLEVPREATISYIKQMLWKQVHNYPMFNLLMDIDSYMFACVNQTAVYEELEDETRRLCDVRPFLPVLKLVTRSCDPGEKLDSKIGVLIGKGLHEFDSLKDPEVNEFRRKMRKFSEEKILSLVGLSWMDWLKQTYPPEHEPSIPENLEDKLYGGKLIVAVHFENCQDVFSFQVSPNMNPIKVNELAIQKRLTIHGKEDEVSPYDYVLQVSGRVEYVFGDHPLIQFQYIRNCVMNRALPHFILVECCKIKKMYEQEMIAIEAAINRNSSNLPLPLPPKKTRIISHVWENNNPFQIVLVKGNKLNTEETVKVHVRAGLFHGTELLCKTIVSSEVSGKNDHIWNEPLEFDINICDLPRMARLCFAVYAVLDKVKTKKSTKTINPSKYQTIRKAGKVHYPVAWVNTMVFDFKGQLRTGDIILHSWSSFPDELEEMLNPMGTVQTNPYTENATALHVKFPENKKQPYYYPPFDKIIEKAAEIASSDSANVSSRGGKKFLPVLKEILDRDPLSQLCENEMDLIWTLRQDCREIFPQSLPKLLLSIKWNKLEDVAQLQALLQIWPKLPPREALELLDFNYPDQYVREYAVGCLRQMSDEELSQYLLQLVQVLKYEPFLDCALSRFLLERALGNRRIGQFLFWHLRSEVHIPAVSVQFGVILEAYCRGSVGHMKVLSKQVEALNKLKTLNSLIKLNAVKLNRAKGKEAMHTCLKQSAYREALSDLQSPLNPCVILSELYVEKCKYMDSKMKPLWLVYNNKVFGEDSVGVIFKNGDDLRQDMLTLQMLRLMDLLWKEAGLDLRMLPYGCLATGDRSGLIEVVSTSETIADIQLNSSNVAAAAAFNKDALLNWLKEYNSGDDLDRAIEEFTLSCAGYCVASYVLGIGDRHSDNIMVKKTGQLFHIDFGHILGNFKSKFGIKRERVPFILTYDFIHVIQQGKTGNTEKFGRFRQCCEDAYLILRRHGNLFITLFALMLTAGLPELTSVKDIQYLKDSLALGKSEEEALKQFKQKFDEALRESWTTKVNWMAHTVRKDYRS
T2 sequence (P27986 whole entry partner): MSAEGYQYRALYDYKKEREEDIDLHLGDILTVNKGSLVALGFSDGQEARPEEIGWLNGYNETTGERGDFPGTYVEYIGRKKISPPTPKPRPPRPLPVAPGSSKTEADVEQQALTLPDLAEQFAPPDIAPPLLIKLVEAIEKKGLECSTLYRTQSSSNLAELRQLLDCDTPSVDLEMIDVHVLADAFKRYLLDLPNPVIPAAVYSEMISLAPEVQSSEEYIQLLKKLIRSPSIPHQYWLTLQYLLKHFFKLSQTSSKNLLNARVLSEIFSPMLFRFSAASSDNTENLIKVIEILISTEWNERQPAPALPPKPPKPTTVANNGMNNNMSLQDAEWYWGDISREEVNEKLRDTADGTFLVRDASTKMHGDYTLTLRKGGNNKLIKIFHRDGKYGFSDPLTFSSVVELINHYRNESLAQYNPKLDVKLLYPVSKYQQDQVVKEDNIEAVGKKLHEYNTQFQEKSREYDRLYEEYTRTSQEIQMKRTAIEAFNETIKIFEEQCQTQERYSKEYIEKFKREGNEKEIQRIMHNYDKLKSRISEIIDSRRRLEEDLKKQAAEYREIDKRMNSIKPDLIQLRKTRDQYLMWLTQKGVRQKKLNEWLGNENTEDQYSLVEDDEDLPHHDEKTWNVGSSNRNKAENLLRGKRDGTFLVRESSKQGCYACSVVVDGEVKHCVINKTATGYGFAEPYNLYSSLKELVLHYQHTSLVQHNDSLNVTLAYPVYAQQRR
T1 sequence (P42336 whole entry): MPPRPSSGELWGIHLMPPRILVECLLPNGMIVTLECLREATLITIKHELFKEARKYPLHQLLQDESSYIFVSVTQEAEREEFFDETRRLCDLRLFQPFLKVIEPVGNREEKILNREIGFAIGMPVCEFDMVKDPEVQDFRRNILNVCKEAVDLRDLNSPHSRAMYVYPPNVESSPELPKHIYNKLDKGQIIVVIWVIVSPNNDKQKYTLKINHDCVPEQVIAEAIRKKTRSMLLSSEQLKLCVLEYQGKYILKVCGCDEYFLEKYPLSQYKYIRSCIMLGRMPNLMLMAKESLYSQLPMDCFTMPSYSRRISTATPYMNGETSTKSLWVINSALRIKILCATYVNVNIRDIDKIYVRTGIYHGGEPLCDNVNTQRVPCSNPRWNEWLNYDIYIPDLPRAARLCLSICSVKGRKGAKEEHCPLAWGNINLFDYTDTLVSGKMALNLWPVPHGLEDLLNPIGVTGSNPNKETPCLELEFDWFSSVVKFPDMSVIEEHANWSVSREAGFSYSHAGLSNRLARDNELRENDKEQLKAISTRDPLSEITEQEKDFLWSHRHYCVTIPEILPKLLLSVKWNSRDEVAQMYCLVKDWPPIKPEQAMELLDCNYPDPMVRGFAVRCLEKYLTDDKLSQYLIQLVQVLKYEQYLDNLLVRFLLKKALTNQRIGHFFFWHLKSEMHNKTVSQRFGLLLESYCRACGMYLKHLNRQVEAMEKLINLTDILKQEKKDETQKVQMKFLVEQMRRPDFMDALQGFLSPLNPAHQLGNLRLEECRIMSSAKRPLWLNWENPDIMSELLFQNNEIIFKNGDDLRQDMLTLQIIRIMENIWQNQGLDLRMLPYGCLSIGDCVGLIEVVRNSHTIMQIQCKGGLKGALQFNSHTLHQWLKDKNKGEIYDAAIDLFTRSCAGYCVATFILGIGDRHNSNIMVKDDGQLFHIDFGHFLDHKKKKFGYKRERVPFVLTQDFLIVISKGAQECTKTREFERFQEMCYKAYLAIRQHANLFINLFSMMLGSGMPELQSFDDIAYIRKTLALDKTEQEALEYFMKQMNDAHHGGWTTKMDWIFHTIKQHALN
T1 sequence (P27986 whole entry partner): as the sequence (P27986 whole entry partner) above
T3 sequence (O00329 whole entry): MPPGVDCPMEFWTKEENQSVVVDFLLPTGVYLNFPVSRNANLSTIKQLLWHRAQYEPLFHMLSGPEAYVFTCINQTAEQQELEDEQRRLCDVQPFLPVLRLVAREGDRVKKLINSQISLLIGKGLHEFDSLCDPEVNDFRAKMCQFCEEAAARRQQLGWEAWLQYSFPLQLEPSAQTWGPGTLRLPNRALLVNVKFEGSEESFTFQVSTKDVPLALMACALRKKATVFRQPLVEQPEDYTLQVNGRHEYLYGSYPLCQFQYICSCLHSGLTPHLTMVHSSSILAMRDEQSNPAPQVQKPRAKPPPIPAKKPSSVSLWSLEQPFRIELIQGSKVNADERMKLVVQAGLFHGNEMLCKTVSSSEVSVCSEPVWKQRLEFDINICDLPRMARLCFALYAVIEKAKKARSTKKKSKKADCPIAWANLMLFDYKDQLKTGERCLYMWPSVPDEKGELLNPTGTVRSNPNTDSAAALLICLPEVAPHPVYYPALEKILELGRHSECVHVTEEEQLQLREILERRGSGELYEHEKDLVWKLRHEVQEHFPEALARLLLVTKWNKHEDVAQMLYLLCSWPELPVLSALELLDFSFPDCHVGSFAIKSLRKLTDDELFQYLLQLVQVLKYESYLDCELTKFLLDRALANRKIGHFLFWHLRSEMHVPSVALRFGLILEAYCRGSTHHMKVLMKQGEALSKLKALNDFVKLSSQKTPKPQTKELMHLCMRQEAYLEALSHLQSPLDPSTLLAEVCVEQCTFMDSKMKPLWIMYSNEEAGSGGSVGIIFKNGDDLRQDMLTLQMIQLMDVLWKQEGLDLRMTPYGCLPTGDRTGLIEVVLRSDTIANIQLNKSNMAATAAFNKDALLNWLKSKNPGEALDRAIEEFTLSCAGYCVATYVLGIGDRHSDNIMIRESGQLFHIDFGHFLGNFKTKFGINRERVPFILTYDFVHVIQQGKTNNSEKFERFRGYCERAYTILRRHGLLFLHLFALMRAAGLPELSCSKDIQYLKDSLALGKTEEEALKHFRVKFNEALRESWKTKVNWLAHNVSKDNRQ
T3 sequence (P27986 whole entry partner): as the sequence (P27986 whole entry partner) above
T4 sequence (P48736 whole entry): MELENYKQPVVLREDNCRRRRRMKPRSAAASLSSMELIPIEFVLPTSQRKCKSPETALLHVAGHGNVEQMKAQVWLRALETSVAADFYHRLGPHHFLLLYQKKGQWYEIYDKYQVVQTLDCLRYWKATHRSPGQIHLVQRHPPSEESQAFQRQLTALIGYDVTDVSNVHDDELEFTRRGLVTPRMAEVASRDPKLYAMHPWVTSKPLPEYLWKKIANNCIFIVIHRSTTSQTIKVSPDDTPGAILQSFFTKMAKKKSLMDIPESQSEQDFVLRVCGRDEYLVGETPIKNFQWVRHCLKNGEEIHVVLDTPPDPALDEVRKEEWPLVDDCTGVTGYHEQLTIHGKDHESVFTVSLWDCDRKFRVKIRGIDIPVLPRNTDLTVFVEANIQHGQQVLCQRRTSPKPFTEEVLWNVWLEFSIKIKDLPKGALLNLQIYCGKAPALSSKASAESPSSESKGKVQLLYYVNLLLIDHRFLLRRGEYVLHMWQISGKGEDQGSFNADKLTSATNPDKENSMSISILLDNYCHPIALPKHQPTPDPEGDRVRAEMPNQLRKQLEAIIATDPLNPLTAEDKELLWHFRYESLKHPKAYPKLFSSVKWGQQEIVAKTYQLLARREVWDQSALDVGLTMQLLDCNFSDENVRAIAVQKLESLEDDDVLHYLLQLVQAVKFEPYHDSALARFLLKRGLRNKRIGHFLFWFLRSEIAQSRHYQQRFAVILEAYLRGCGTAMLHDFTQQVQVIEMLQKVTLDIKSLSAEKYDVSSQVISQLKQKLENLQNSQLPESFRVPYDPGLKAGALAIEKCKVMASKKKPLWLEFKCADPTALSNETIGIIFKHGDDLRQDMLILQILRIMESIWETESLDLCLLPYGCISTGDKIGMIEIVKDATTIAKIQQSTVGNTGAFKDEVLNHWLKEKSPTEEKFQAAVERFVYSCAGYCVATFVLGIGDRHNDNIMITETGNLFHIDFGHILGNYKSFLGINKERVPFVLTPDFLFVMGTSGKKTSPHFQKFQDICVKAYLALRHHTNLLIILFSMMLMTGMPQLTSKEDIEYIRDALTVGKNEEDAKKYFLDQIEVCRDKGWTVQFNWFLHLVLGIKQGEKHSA

As to `COc1ncc(-c2ccc3ncn(CC(C)C(=O)NCC(F)(F)F)c(=O)c3c2)cc1NS(=O)(=O)c1ccc(F)cc1Cl` (single isomer, unassigned) [WX059], the IC50 was 11.2 nM at PI3Kα, 391 nM on PI3Kβ, 13.2 nM against PI3Kδ and 14.2 nM against PI3Kγ.
For the molecule `CNC(=O)C(C)Cn1cnc2c(F)cc(-c3cnc(OC)c(NS(=O)(=O)c4ccc(F)cc4Cl)c3)cc2c1=O` (single isomer, unassigned) [WX106], the IC50 against PI3Kα was determined as 19.5 nM; against PI3Kβ it was 736 nM; in assay [1], 460 nM.
On to `CNC(=O)C(C)Cn1cnc2ccc(-c3cnc(OC)c(NS(=O)(=O)c4cc(Cl)c(F)cc4F)c3)cc2c1=O` (single isomer, unassigned) [WX095], for which the IC50 is 4.77 nM at PI3Kα, 390 nM on PI3Kβ, 29.6 nM against PI3Kδ and 68.3 nM against PI3Kγ.
For `CNC(=O)C(C)Cn1cnc2ccc(-c3cnc(CO)c(NS(=O)(=O)c4ccc(F)cc4Cl)c3)cc2c1=O` (single isomer, unassigned) [WX062] the same measures were 30 nM, > 10000 nM, 538 nM and 374 nM.
In the same order, the values of `CNC(=O)CCCn1cnc2ccc(-c3cnc(C)c(NS(=O)(=O)c4ccc(F)cc4Cl)c3)cc2c1=O` [WX002] are 2.84 nM, 216 nM, 12.4 nM and 33.7 nM.
In the same order, the values of `COc1ncc(-c2ccc3ncn(CC(F)(F)C(N)=O)c(=O)c3c2)cc1NS(=O)(=O)c1ccc(F)cc1Cl` [WX041] are 2.66 nM, 124 nM, 7.16 nM and 8.37 nM.
`CNC(=O)C(C)Cn1cnc2ccc(-c3cnc(C)c(NS(=O)(=O)c4sc(C)nc4C)c3)cc2c1=O` (single isomer, unassigned) [WX034]: the IC50 against PI3Kα came to 0.71 nM; at PI3Kβ, 554 nM; at PI3Kδ, 11.6 nM; on PI3Kγ, 29.9 nM.
In the same order, the values of `CNC(=O)C(C)Cn1cnc2ccc(-c3cnc(C)c(NS(=O)(=O)c4sc(C)nc4C)c3)cc2c1=O` (single isomer, unassigned) [WX035] are 1.57 nM, 158 nM, 7.3 nM and 19.6 nM.
In the case of `COCCNC(=O)C(C)Cn1cnc2ccc(-c3cnc(OC)c(NS(=O)(=O)c4ccc(F)cc4Cl)c3)cc2c1=O` (single isomer, unassigned) [WX064], the concentration for half-maximal inhibition (IC50) against PI3Kα worked out at 6.8 nM; on PI3Kβ, 365 nM; against PI3Kδ, 9.15 nM; against PI3Kγ, 16.4 nM.
For `CCC(CC)NC(=O)C(C)Cn1cnc2ccc(-c3cnc(OC)c(NS(=O)(=O)c4ccc(F)cc4Cl)c3)cc2c1=O` (single isomer, unassigned) [WX056] the same measures were 19.6 nM, 5080 nM, 61 nM and 155 nM.
For `CNC(=O)C1(Cn2cnc3ccc(-c4cnc(OC)c(NS(=O)(=O)c5ccc(F)cc5Cl)c4)cc3c2=O)CC1` [WX202] the same measures were 6.71 nM, 88.5 nM, 4.36 nM and 44.1 nM.
For `Cc1ncc(-c2ccc3ncn(CCN(C)C)c(=O)c3c2)cc1NS(=O)(=O)c1ccc(F)cc1Cl` [R010, reference compound] the same measures were 34.4 nM, 345 nM, 45.8 nM and 421 nM.
As to `COc1ncc(-c2ccc3ncn(CC(C)C(=O)NCCF)c(=O)c3c2)cc1NS(=O)(=O)c1ccc(F)cc1Cl` (single isomer, unassigned) [WX066], the IC50 came out at 5.26 nM on PI3Kα, 181 nM against PI3Kβ, 7.78 nM against PI3Kδ and 9.25 nM at PI3Kγ.
For the molecule `CNC[C@@H](C)Cn1cnc2ccc(-c3cnc(OC)c(NS(=O)(=O)c4ccc(F)cc4Cl)c3)cc2c1=O` [R008, reference compound], the concentration for half-maximal inhibition (IC50) on PI3Kα is 12 nM; at PI3Kβ, 121 nM.
In the case of `Cc1ncc(-c2ccc3ncn(CCCC(=O)N4CCCC4)c(=O)c3c2)cc1NS(=O)(=O)c1ccc(F)cc1Cl` [WX005], the IC50 on PI3Kα stood at 4.39 nM; against PI3Kβ, 244 nM; at PI3Kδ it was 7.42 nM; on PI3Kγ it was 49.7 nM.
`CNC(=O)C(C)Cn1cnc2ccc(-c3cnc(OC)c(NS(=O)(=O)c4cc(C)ccc4Cl)c3)cc2c1=O` (single isomer, unassigned) [WX213]: the half-maximal inhibitory concentration (IC50) came to 4.52 nM against PI3Kα and 201 nM against PI3Kβ.
`CCC(CC)NC(=O)C(C)Cn1cnc2ccc(-c3cnc(OC)c(NS(=O)(=O)c4ccc(F)cc4Cl)c3)cc2c1=O` (single isomer, unassigned) [WX057]: the IC50 was 57.2 nM against PI3Kα, 963 nM on PI3Kβ, 28.4 nM at PI3Kδ and 48.1 nM against PI3Kγ.
Turning to `CNC(=O)C(C)Cn1cnc2ccc(-c3cnc(C(F)(F)F)c(NS(=O)(=O)c4ccc(F)cc4Cl)c3)cc2c1=O` (stereo not drawn) [WX084], the IC50 on PI3Kα came to 0.56 nM; at PI3Kβ, 110 nM.
Consider `Cc1nc(C)c(S(=O)(=O)Nc2cc(-c3ccc4ncn(CCCC(=O)N5CCCC5)c(=O)c4c3)cnc2C)s1` [WX007], for which the IC50 worked out at 1.49 nM against PI3Kα, 159 nM at PI3Kβ, 1.85 nM against PI3Kδ and 29.1 nM against PI3Kγ.
For the molecule `CNC(=O)C(C)Cn1cnc2ccc(-c3cnc(CO)c(NS(=O)(=O)c4ccc(F)cc4Cl)c3)cc2c1=O` (single isomer, unassigned) [WX063], the IC50 against PI3Kα was determined as 71.4 nM; at PI3Kβ, 7230 nM; against PI3Kδ, 336 nM; against PI3Kγ, 318 nM.
On to `CNC(=O)C(C)Cn1cnc2ccc(-c3cnc(OC)c(NS(=O)(=O)c4ccc(F)c(C#N)c4)c3)cc2c1=O` (single isomer, unassigned) [WX157], for which the IC50 on PI3Kα stood at 5.81 nM; at PI3Kβ, 287 nM.
